IC50, inhibition and viability data for 25 compounds are collected here from ChEMBL document CHEMBL3351479, “Novel acylureidoindolin-2-one derivatives as dual Aurora B/FLT3 inhibitors for the treatment of acute myeloid leukemia” (Eur J Med Chem, 2014).

Assay [1] deals with MV4-11. The assay is described as follows: Cytotoxicity against human MV4-11 cells assessed as cell viability after 48 hrs by MTT assay. It counts as functional, cell-based. The note with it: Homo sapiens, MV4-11, 48 h.
In assay [2] the test system is MOLM-13. The assay is described as follows: Cytotoxicity against human MOLM13 cells assessed as cell viability after 48 hrs by MTT assay. It counts as functional, cell-based. The settings on record: MOLM-13, 48 h.
Assay [3] has as its system THP-1. Description: Cytotoxicity against human THP1 cells assessed as cell viability after 48 hrs by MTT assay. Type of assay: functional, cell-based. The note with it: Homo sapiens, THP-1, 48 h.
Assay [4] can be described thus: Cytotoxicity against human HL60 cells assessed as cell viability after 48 hrs by MTT assay. It counts as functional, cell-based. The settings on record: HL-60, 48 h.
Assay [5] has as its target Aurora kinase B (Homo sapiens, UniProt Q96GD4). Description: Inhibition of Aurora B (unknown origin) using HLRRASLG substrate at 1 uM.
For assay [6], the target named is Receptor-type tyrosine-protein kinase FLT3 (Homo sapiens) (UniProt P36888). The assay is described as follows: Inhibition of FLT3 (unknown origin) using EAIYAAPFAKKK substrate at 1 uM.
Assay [7] relates to MV4-11. The assay is described as follows: Cytotoxicity against human MV4-11 cells assessed as cell viability at 1 uM after 48 hrs by MTT assay. It counts as functional. The settings on record: MV4-11, 48 h, read-out: Activity.
The test system of assay [8] is MOLM-13. The assay is described as follows: Cytotoxicity against human MOLM13 cells assessed as cell viability at 1 uM after 48 hrs by MTT assay. It counts as functional. The note with it: MOLM-13, 48 h, read-out: Activity.
The subject of assay [9] is THP-1. Description: Cytotoxicity against human THP1 cells assessed as cell viability at 1 uM after 48 hrs by MTT assay. The settings on record: THP-1, 48 h, read-out: Activity. It counts as functional.

Aurora kinase B, sequence (Q96GD4 whole entry): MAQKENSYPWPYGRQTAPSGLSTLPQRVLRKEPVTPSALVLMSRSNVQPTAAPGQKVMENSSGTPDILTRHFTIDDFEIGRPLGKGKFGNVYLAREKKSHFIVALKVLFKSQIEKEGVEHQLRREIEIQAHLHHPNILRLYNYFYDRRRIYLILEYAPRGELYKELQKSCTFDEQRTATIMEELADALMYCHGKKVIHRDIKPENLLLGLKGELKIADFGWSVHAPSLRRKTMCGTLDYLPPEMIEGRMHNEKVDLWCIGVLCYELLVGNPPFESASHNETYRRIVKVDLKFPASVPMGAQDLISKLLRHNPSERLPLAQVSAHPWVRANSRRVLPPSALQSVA
Receptor-type tyrosine-protein kinase FLT3 (Homo sapiens), sequence (P36888 whole entry): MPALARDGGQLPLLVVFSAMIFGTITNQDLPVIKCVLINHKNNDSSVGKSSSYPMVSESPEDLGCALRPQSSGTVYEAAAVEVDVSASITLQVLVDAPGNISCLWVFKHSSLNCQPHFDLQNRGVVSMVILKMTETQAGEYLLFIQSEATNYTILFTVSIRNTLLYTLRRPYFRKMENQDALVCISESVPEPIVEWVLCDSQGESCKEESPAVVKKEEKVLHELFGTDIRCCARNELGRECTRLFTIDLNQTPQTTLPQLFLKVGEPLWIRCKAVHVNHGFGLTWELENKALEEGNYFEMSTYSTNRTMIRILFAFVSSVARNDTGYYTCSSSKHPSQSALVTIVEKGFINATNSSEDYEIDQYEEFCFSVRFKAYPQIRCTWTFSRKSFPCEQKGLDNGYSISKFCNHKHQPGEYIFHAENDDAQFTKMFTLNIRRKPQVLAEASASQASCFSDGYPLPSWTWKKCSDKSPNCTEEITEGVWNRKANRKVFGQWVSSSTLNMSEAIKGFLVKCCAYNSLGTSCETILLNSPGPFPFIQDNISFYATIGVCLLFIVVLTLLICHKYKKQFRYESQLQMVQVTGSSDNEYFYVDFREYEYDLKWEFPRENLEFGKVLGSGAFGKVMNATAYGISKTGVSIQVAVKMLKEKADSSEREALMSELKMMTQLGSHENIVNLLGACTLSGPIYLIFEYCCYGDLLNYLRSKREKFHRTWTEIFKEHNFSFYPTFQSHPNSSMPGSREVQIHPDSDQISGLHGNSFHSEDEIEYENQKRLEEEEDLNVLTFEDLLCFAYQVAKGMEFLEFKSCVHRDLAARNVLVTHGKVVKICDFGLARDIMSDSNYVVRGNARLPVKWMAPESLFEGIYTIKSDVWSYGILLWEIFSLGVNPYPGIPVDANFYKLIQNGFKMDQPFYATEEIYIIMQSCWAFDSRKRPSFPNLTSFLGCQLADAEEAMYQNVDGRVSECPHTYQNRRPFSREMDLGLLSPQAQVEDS

With `COc1ccc(C(=O)NC(=O)Nc2ccc3c(c2)NC(=O)/C3=C\c2[nH]c(C)c(C(=O)N3CCN(C)CC3)c2C)c(F)c1`, the half-maximal inhibitory concentration (IC50) came to 10.6 nM in [1], 6.9 nM in assay [2], 95.1 nM in assay [3] and 15.7 nM in [4].

Turning to `COc1ccc(C(=O)NC(=O)Nc2cccc3c2/C(=C/c2ccc[nH]2)C(=O)N3)cc1`, the 50% inhibitory concentration (IC50) stood at 357 nM in [1], 303 nM in assay [2], 356 nM in assay [3] and 334 nM in assay [4]. In [5], this compound gave an inhibition of 11%.

In the case of `COc1ccc(C(=O)NC(=O)Nc2ccc3c(c2)NC(=O)/C3=C\c2[nH]c(C)c(C(=O)NCCN(C)C)c2C)c(F)c1`, the IC50 in [1] came to 8.1 nM; in assay [2], 5.3 nM; in [3], 63.7 nM; in assay [4] it was 14.1 nM.

Consider `COc1ccc(C(=O)NC(=O)Nc2ccc3c(c2)NC(=O)/C3=C\c2[nH]c(C)c(C(=O)N3CCOCC3)c2C)c(F)c1`, for which the half-maximal inhibitory concentration (IC50) in [1] amounted to 16.8 nM; in [2] it was 10.8 nM; in assay [3], 102 nM; in [4], 24 nM.

`CN(C)c1ccc(C(=O)NC(=O)Nc2ccc3c(c2)NC(=O)/C3=C\c2ccc[nH]2)cc1`: the IC50 in assay [1] worked out at 261 nM; in assay [2], 260 nM; in [3], 262 nM; in assay [4], 269 nM.

`CCN(CC)CCNC(=O)c1c(C)[nH]c(/C=C2\C(=O)Nc3ccc(F)cc32)c1C` [SUNITINIB]: the half-inhibitory concentration (IC50) in [1] was 24.3 nM; in assay [2], 17.7 nM; in assay [3], 45.7 nM; in [4], 36.8 nM.

As for `O=C(NC(=O)c1ccc(C(F)(F)F)cc1)Nc1ccc2c(c1)NC(=O)/C2=C\c1ccc[nH]1`, the IC50 in [1] came out at 191 nM; in assay [2], 196 nM; in assay [3], 326 nM; in assay [4] it was 293 nM.

For `O=C(NC(=O)c1ccc(Cl)c(Cl)c1)Nc1ccc2c(c1)NC(=O)/C2=C\c1ccc[nH]1`, the IC50 is 31.6 nM in assay [1], 29 nM in [2], 90.9 nM in assay [3] and 35 nM in [4].

Consider `O=C(NC(=O)c1ccccc1F)Nc1ccc2c(c1)NC(=O)/C2=C\c1ccc[nH]1`, for which the concentration for half-maximal inhibition (IC50) in [1] stood at 234 nM; in [2], 232 nM; in assay [3], 331 nM; in assay [4] it was 268 nM.

Take `COc1ccc(C(=O)NC(=O)Nc2ccc3c(c2)NC(=O)/C3=C\c2[nH]c(C)c(CCC(=O)N3CCN(C)CC3)c2C)c(F)c1`: the 50% inhibitory concentration (IC50) in assay [1] is 11 nM; in assay [2], 9.2 nM; in assay [3], 65 nM; in assay [4] it was 15.7 nM.

For `COc1ccc(C(=O)NC(=O)Nc2cc3c(cc2F)/C(=C/c2[nH]c(C)c(CCC(=O)O)c2C)C(=O)N3)c(F)c1`, the concentration for half-maximal inhibition (IC50) in [1] was found to be 6.5 nM; in assay [2] it was 2.3 nM; in assay [3], 55.9 nM; in [4], 8.9 nM.

For `COc1ccc(C(=O)NC(=O)Nc2ccc3c(c2)NC(=O)/C3=C\c2[nH]c(C)cc2C)cc1`, the half-inhibitory concentration (IC50) was 62.8 nM in assay [1], 42.8 nM in [2], 116 nM in [3] and 45.8 nM in [4].

As to `COc1ccc(C(=O)NC(=O)Nc2cc3c(cc2F)/C(=C/c2[nH]c(C)c(C(=O)O)c2C)C(=O)N3)c(F)c1`, the IC50 in assay [1] was found to be 35.9 nM; in [2], 17.8 nM; in [3], 76.3 nM; in [4], 28.6 nM.

In the case of `COc1ccc(C(=O)NC(=O)Nc2ccc3c(c2)NC(=O)/C3=C\c2[nH]c(C)c(CCC(=O)N3CCOCC3)c2C)c(F)c1`, the IC50 in assay [1] is 17.9 nM; in assay [2], 16.1 nM; in [3], 70.3 nM; in assay [4] it was 31.2 nM.

On to `COc1ccc(C(=O)NC(=O)Nc2cccc3c2NC(=O)/C3=C\c2ccc[nH]2)cc1`, for which the half-maximal inhibitory concentration (IC50) in [1] is more than 500 nM; in assay [2] it was more than 500 nM; in assay [3], more than 500 nM; in assay [4], 488 nM. The inhibition in [5] and in assay [6] was 7% in each case. Moreover, the viability at 1 µM in assay [7] was 78%; in assay [8], 72%; in assay [9], 53%.

`Cc1ccc(C(=O)NC(=O)Nc2ccc3c(c2)NC(=O)/C3=C\c2ccc[nH]2)cc1`: the IC50 turned out to be 285 nM in assay [1], 212 nM in [2], 356 nM in assay [3] and 301 nM in [4].

With `CCN(CCO)CCCOc1ccc2c(Nc3cc(CC(=O)Nc4cccc(F)c4)[nH]n3)ncnc2c1` [DEFOSBARASERTIB], the half-inhibitory concentration (IC50) in assay [1] was found to be 8.6 nM; in assay [2], 9.7 nM; in assay [3], 25.1 nM; in assay [4], 12.7 nM.

With `CCN(CC)CCNC(=O)c1c(C)[nH]c(/C=C2\C(=O)Nc3cc(NC(=O)NC(=O)c4ccc(OC)cc4F)ccc32)c1C`, the 50% inhibitory concentration (IC50) in assay [1] was 17.7 nM; in [2] it was 12.9 nM; in assay [3], 41.2 nM; in assay [4], 20.3 nM.

With `COc1ccc(/C=C2/C(=O)Nc3cc(NC(=O)NC(=O)c4ccc(OC)cc4)ccc32)cc1`, the IC50 in assay [1] was 228 nM; in [2], 238 nM; in [3], 382 nM; in assay [4], 336 nM. Also, the values for the inhibition in [5] and in assay [6] were 56% and 43%, respectively.

Consider `COc1ccc(C(=O)NC(=O)Nc2ccc3c(c2)/C(=C/c2ccc[nH]2)C(=O)N3)cc1`, for which the IC50 was 256 nM in assay [1], 222 nM in [2], 373 nM in [3] and 301 nM in assay [4]. In addition, the inhibition in assay [5] amounted to 39%.

For `COc1ccc(C(=O)NC(=O)Nc2ccc3c(c2)NC(=O)/C3=C\c2[nH]c(C)c(CC(=O)O)c2C)cc1`, the half-inhibitory concentration (IC50) came to 4.2 nM in [1], 3.1 nM in assay [2], 69 nM in [3] and 8.1 nM in assay [4].

As to `COc1ccc(C(=O)NC(=O)Nc2ccc3c(c2)NC(=O)/C3=C/c2ccc(N(C)C)cc2)cc1`, the concentration for half-maximal inhibition (IC50) was 45.5 nM in assay [1], 42.5 nM in [2], 88.9 nM in assay [3] and 50.4 nM in assay [4]. Besides, the inhibition in assay [5] was found to be 59%; in [6], 40%.

Take `O=C(NC(=O)c1ccc(Cl)c(C(F)(F)F)c1)Nc1ccc2c(c1)NC(=O)/C2=C\c1ccc[nH]1`: the IC50 in assay [1] was found to be 14.1 nM; in assay [2] it was 11.1 nM; in [3], 68.8 nM; in [4] it was 23.2 nM.

For the compound `O=C(NC(=O)c1ccc(Cl)cc1)Nc1ccc2c(c1)NC(=O)/C2=C\c1ccc[nH]1`, the 50% inhibitory concentration (IC50) in [1] came to 19.3 nM; in [2], 19.1 nM; in [3], 81.2 nM; in assay [4], 21.6 nM.

As to `COc1ccc(C(=O)NC(=O)Nc2ccc3c(c2)NC(=O)/C3=C\c2[nH]c(C)c(CCC(=O)O)c2C)c(F)c1`, the concentration for half-maximal inhibition (IC50) in [1] was 6.1 nM; in assay [2] it was 4 nM; in assay [3], 61.3 nM; in [4] it was 16.7 nM.
